The conditions of series [1]: isoelectric point; cited from earlier work.
A short description of series [2]: Drug loading of nanoparticles on carrier. It is filed as physicochemical. The following applies: on the PA-MMT carrier (4.6 mg PA/g MMT). From the text: The drug loading in % w/w is the amount of drug in grams per 100 g of functionalised carrier particles. A high drug loading is beneficial for delivering a sufficient dose to a patient. In embodiments the composite has a drug loading of at least 2, 4, 6, 8, 9, 10, 15, 20, 30, 40 or 50% w/w. In embodiments the composite has a drug loading of no more than 100, 90, 80 or 70% w/w.
The drug loading (% w/w) can also be determined by dissolution testing whereby a known mass of dry drug loaded carrier particles is dissolved in a known volume of dissolution media. […] The concentration of drug in the dissolution media is measured by UV/Vis and/or HPLC spectroscopic methods until it stops increasing with time. The mass of drug present on the known mass of drug loaded carrier particles can thus be estimated and the drug loading in (% w/w) can be calculated.
Nanoparticles of both fenofibrate (FF) and mefenamic acid (MEF) were generated by antisolvent precipitation. An organic solution of FF in ethanol (1 mL, 50 mg/mL) was quickly introduced by Eppendorf pipet to 10 mL antisolvent containing (a) water, (b) an MMT suspension in water (50 mg/mL, equilibrated for >2 hrs) or (c) a protamine-modified MMT suspension in water (50 mg/mL, 4.6-189.9 mg PA/g MMT, equilibrated for >2 hrs). Solutions/suspensions were maintained at 25° C. under rapid agitation (800 rpm) throughout the precipitation process. […]

Series [3] is described as follows: Particle size analysis by laser diffraction (Malvern Mastersizer 3000). It is filed as physicochemical. The following applies: water as dispersion medium. The method, then: Particle size can be determined by laser diffraction, for example using a Malvern Mastersizer 3000.
Particle size measurements were performed by laser diffraction using a Malvern Mastersizer 3000, with water as the dispersion medium. In cases where the particle size was not stable, HPMC and SDS were added to the water dispersant at a concentration of 0.038 mg/mL each to minimise variation between consecutive measurements. Precipitated drug suspensions were diluted by a factor of 5 with water prior to their introduction to the measurement vessel. An MMT control was treated by the conditions used during antisolvent precipitation before measuring its particles size. An obscuration rate of 7-10%, a stir rate of 2300 rpm, a 1 min pre-measurement delay (including 20 sec with 5% sonication power) were the conditions used during all size measurements. A refractive index of 1.55 and an absorption index of 0.01 were used for FF measurements. A refractive index of 1.55 and an absorption index of 0.1 were used for MMT measurements. Four measurements were taken per run and each sample was run twice. The D50 was reported for each size distribution and averaged across all measurements. Measurement variations were also reported.

Series [4] in a line: Zeta potential determination (electrophoretic light scattering, Malvern Zetasizer Nano ZSP). The following applies: particles without surface treatment agent, suspension in water, 25° C. It is filed as physicochemical. The method, then: Zeta potential can be determined from electrophoretic mobility using the Smoluchowski calculation. The electrophoretic mobility value can be determined at 25° C. by electrophoretic light scattering (ELS), e.g. using a Malvern Zetasizer Nano ZSP system. Such commercially available ELS instrumentation will directly provide zeta potential values. Aqueous suspensions are filled into a folded capillary cell and equilibrated at 25° C. for 120 seconds before measurement. Three measurements are taken per run and each sample is run twice. The average value and the variation between measurements can be reported.
Unless otherwise stated, reference to zeta potential is a reference to the zeta potential of a suspension of the particles in water at neutral pH (pH 7) at standard ambient temperature and pressure (SATP, 25° C. and 100 kPa).
Zetapotential measurements were conducted on a Malvern Zetasizer Nano ZSP system. Zetapotential was determined from the electrophoretic mobility using the Smoluchowski approximation. The samples (without dilution) were filled into a folded capillary cell and equilibrated at 25° C. for 120 s before measurement. Three measurements were taken per run and each sample was run twice. The average value and the variation between measurements were reported.

As to Avidin [Avidin (glycoprotein)], in series [1], the pI is given as 10.5.
`Cc1cccc(Nc2ccccc2C(=O)O)c1C` [mefenamic acid]: in series [2], the drug loading was 4.8%. For the same compound, the “particle size D50” value in series [3] was 0.84±0.05 μm. The zeta potential in series [4] is listed as −35.3 mV.
For Galatine B, the pI in series [1] is 5.
Turning to Gelatine A, the pI in series [1] is given as 6-9.
On to `C[C@H](N)C(=O)O` [Alanine], for which the pI in series [1] is recorded as 6.00.

Source of the values: patent US10849989B2, “Isolated composite drug and carrier nanoparticles” (University of Limerick, priority 2016, dated 2020).
